Measured values taken from US20120053197A1, “TRICYCLIC PYRIDINE DERIVATIVES, MEDICAMENTS CONTAINING SUCH COMPOUNDS, THEIR USE AND PROCESS FOR THEIR PREPARATION” (BOEHRINGER INGELHEIM INTERNATIONAL GMBH, priority 2010, published 2012).

Molecular target: T1, recombinant human CETP (Homo sapiens, UniProt P11597)
T1 construct: made in house; host or cells: CHO cells (protein secreted into conditioned medium)
T1 sequence (P11597 18-493): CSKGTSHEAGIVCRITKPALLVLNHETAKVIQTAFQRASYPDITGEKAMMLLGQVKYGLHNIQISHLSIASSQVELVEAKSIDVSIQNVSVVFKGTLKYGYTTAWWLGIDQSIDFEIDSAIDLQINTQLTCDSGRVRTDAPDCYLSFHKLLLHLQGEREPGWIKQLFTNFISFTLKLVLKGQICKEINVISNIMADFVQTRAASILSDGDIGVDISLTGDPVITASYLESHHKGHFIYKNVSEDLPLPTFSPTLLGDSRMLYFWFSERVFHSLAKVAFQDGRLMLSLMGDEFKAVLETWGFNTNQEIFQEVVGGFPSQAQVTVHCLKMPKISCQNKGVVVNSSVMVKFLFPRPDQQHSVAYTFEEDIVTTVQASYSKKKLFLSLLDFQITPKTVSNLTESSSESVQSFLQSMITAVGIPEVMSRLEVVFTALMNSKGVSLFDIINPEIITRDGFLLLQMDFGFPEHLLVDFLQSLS
Assay: CETP in vitro fluorometric assay (Roar Biomedical), cholesterol ester transfer from HDL to LDL
Assay type: biochemical
Settings: recombinant human CETP from CHO cells; 3 hours at 37° C.; fluorescence ex 485 nm / em 535 nm; compound concentrations between 1 nM and 30 μM; read-out: IC50 values for inhibition of CETP
Method: CETP inhibitory activity of compounds of the present invention can be determined in a fluorometric assay puchased from Roar Biomedical, Inc. (New York, N.Y., USA). […] Recombinant human CETP was partially purified from medium conditioned by CETP expressing CHO cells. In a 384 well format 2.5 μl of compound solution in DMSO was combined with 2 μl of donor solution, 2 μl of acceptor solution and 0.8 μl of recombinant human CETP solution in a total volume of 100 μl with assay buffer and incubated for 3 hours at 37° C. The fluorescence intensity was measured at excitation wavelength of 485 nm and emission wavelength of 535 nm. IC50 values are calculated from dose effect curves from compound concentrations between 1 nM and 30 μM.

| SMILES | IC50 [µM] |
| --- | --- |
| CC(C)c1nc2c(c3c1[C@H](c1ccc(C(F)(F)F)cc1)OC31CCCC1)[C@@H](O)CC(C)(C)C2 [1(1), (3′S,9′S)-4′-isopropyl-7′,7′-dimethyl-3′-(4-(trifluoromethyl)phenyl)-6′,7′,8′,9′-tetrahydro-3′H-spiro[cyclopentane-1,1′-furo[3,4-c]quinolin]-9′-ol] | 1.43 |
| CC(C)c1nc2c(c3c1[C@H](c1ccc(C(F)(F)F)cc1)O[C@]31C=CCC1)[C@@H](O)CC(C)(C)C2 [1(2), (1R,3′S,9′S)-4′-isopropyl-7′,7′-dimethyl-3′-(4-(trifluoromethyl)phenyl)-6′,7′,8′,9′-tetrahydro-3′H-spiro[cyclopent[2]ene-1,1′-furo[3,4-c]quinolin]-9′-ol] | 4.68 |
| CC(C)c1nc2c(c3c1[C@@H](c1ccc(C(F)(F)F)cc1)OC3(C)C)[C@@H](O)CC(C)(C)C2 [1(3), (3R,9S)-4-isopropyl-1,1,7,7-tetramethyl-3-(4-(trifluoromethyl)phenyl)-1,3,6,7,8,9-hexahydrofuro[3,4-c]quinolin-9-ol] | 0.46 |
| CC1(C)Cc2nc(C3CCOCC3)c3c(c2[C@@H](O)C1)C1(CCCC1)O[C@@H]3c1ccc(C(F)(F)F)cc1 [1(5), (3′R,9′S)-7′,7′-dimethyl-4′-(tetrahydro-2H-pyran-4-yl)-3′-(4-(trifluoromethyl)phenyl)-6′,7′,8′,9′-tetrahydro-3′H-spiro[cyclopentane-1,1′-furo[3,4-c]quinolin]-9′-ol] | 0.042 |
| CC1(C)Cc2nc(C3CCCC3)c3c(c2[C@@H](O)C1)C1(CCCC1)O[C@@H]3c1ccc(C(F)(F)F)cc1 [1(6), (3′R,9′S)-4′-cyclopentyl-7′,7′-dimethyl-3′-(4-(trifluoromethyl)phenyl)-6′,7′,8′,9′-tetrahydro-3′H-spiro[cyclopentane-1,1′-furo[3,4-c]quinolin]-9′-ol] | 0.037 |
| CC(C)c1ccc([C@H]2OC3(CCCC3)c3c2c(C(C)C)nc2c3[C@@H](O)CC(C)(C)C2)cc1 [1(7), (3′R,9′S)-4′-isopropyl-3′-(4-isopropylphenyl)-7′,7′-dimethyl-6′,7′,8′,9′-tetrahydro-3′H-spiro[cyclopentane-1,1′-furo[3,4-c]quinolin]-9′-ol] | 0.077 |
| CC(C)c1nc2c(c3c1[C@@H](c1ccc(F)cc1)OC31CCCC1)[C@@H](O)CC(C)(C)C2 [1(8), (3′R,9′S)-3′-(4-fluorophenyl)-4′-isopropyl-7′,7′-dimethyl-6′,7′,8′,9′-tetrahydro-3′H-spiro[cyclopentane-1,1′-furo[3,4-c]quinolin]-9′-ol] | 0.856 |
| CC(C)c1nc2c(c3c1[C@@H](c1ccc(Cl)cc1)OC31CCCC1)[C@@H](O)CC(C)(C)C2 [1(9), (3′R,9′S)-3′-(4-chlorophenyl)-4′-isopropyl-7′,7′-dimethyl-6′,7′,8′,9′-tetrahydro-3′H-spiro[cyclopentane-1,1′-furo[3,4-c]quinolin]-9′-ol] | 0.148 |
| CC1(C)Cc2nc(C3CCCC3)c3c(c2[C@@H](O)C1)C1(CCCC1)O[C@@H]3c1ccc(F)cc1 [1(10), (3′R,9′S)-4′-cyclopentyl-3′-(4-fluorophenyl)-7′,7′-dimethyl-6′,7′,8′,9′-tetrahydro-3′H-spiro[cyclopentane-1,1′-furo[3,4-c]quinolin]-9′-ol] | 0.36 |
| CC(C)c1nc2c(c3c1[C@@H](c1ccc(C(C)(C)C)cc1)OC31CCCC1)[C@@H](O)CC(C)(C)C2 [1(11), (3′R,9′S)-3′-(4-tert-butylphenyl)-4′-isopropyl-7′,7′-dimethyl-6′,7′,8′,9′-tetrahydro-3′H-spiro[cyclopentane-1,1′-furo[3,4-c]quinolin]-9′-ol] | 0.036 |
| CC(C)c1nc2c(c3c1[C@@H](c1ccc(C(F)(F)F)nc1)OC31CCCC1)[C@@H](O)CC(C)(C)C2 [1(12), (3′R,9′S)-4′-isopropyl-7′,7′-dimethyl-3′-(6-(trifluoromethyl)pyridin-3-yl)-6′,7′,8′,9′-tetrahydro-3′H-spiro[cyclopentane-1,1′-furo[3,4-c]quinolin]-9′-ol] | 0.15 |
| CC1(C)Cc2nc(C3CCOCC3)c3c(c2[C@@H](O)C1)C1(CCCC1)O[C@H]3c1ccc(C(F)(F)F)cc1 [1(13), (3′S,9′S)-7′,7′-dimethyl-4′-(tetrahydro-2H-pyran-4-yl)-3′-(4-(trifluoromethyl)phenyl)-6′,7′,8′,9′-tetrahydro-3′H-spiro[cyclopentane-1,1′-furo[3,4-c]quinolin]-9′-ol] | 6.89 |
| Cc1ccc([C@H]2OC3(CCCC3)c3c2c(C(C)C)nc2c3[C@@H](O)CC(C)(C)C2)cc1 [1(14), (3′R,9′S)-4′-isopropyl-7′,7′-dimethyl-3′-p-tolyl-6′,7′,8′,9′-tetrahydro-3′H-spiro[cyclopentane-1,1′-furo[3,4-c]quinolin]-9′-ol] | 0.409 |
| CC(C)c1nc2c(c3c1[C@@H](c1ccc(C(F)(F)F)cc1)OC31CCCC1)[C@@H](O)CC1(CCC1)C2 [1(15), (3′R,9′S)-4′-isopropyl-7′,7′-(propan-1,3-diyl)-3′-(4-(trifluoromethyl)phenyl)-6′,7′,8′,9′-tetrahydro-3′H-spiro[cyclopentane-1,1′-furo[3,4-c]quinolin]-9′-ol] | 0.021 |
| CC(C)c1nc2c(c3c1[C@@H](c1ccc(C(F)(F)F)c(F)c1)OC31CCCC1)[C@@H](O)CC(C)(C)C2 [1(16), (3′R,9′S)-3′-(3-fluoro-4-(trifluoromethyl)phenyl)-4′-isopropyl-7′,7′-dimethyl-6′,7′,8′,9′-tetrahydro-3′H-spiro[cyclopentane-1,1′-furo[3,4-c]quinolin]-9′-ol] | 0.043 |
| CC(C)c1nc2c(c3c1[C@@H](c1ccc(OC(F)(F)F)cc1)OC31CCCC1)[C@@H](O)CC(C)(C)C2 [1(17), (3′R,9′S)-4′-isopropyl-7′,7′-dimethyl-3′-(4-(trifluoromethoxy)phenyl)-6′,7′,8′,9′-tetrahydro-3′H-spiro[cyclopentane-1,1′-furo[3,4-c]quinolin]-9′-ol] | 0.131 |
| CC(C)c1nc2c(c3c1[C@@H](c1ccc(C(C)(C)C)cc1)OC3(C)C)[C@@H](O)CC(C)(C)C2 [1(18), (3R,9S)-3-(4-tert-butylphenyl)-4-isopropyl-1,1,7,7-tetramethyl-1,3,6,7,8,9-hexahydrofuro[3,4-c]quinolin-9-ol] | 0.363 |
| CC1(C)Cc2nc(C3CCCC3)c3c(c2[C@@H](O)C1)C(C)(C)O[C@@H]3c1ccc(C(C)(C)C)cc1 [1(19), (3R,9S)-3-(4-tert-butylphenyl)-4-cyclopentyl-1,1,7,7-tetramethyl-1,3,6,7,8,9-hexahydrofuro[3,4-c]quinolin-9-ol] | 0.351 |
| CC(C)c1nc2c(c3c1[C@@H](c1ccc(C#N)cc1)OC31CCCC1)[C@@H](O)CC(C)(C)C2 [1(20), 4-((3′R,9′S)-9′-hydroxy-4′-isopropyl-7′,7′-dimethyl-6′,7′,8′,9′-tetrahydro-3′H-spiro[cyclopentane-1,1′-furo[3,4-c]quinoline]-3′-yl)benzonitrile] | 1.08 |
| CC(C)c1nc2c(c3c1[C@@H](c1ccc(C(F)(F)F)cn1)OC31CCCC1)[C@@H](O)CC(C)(C)C2 [1(21), (3′S,9′S)-4′-isopropyl-7′,7′-dimethyl-3′-(5-(trifluoromethyl)pyridin-2-yl)-6′,7′,8′,9′-tetrahydro-3′H-spiro[cyclopentane-1,1′-furo[3,4-c]quinolin]-9′-ol] | 0.124 |
| CC(C)c1nc2c(c3c1[C@@H](c1ccc(C(C)(C)C#N)cc1)OC31CCCC1)[C@@H](O)CC(C)(C)C2 [1(22), 2-(4-((3′R,9′S)-9′-hydroxy-4′-isopropyl-7′,7′-dimethyl-6′,7′,8′,9′-tetrahydro-3′H-spiro[cyclopentane-1,1′-furo[3,4-c]quinoline]-3′-yl)phenyl)-2-methylpropanenitrile] | 0.047 |
| CC(C)c1nc2c(c3c1[C@H](c1ccc(C(C)(C)C#N)cc1)OC31CCCC1)[C@@H](O)CC(C)(C)C2 [1(23), 2-(4-((3′S,9′S)-9′-hydroxy-4′-isopropyl-7′,7′-dimethyl-6′,7′,8′,9′-tetrahydro-3′H-spiro[cyclopentane-1,1′-furo[3,4-c]quinoline]-3′-yl)phenyl)-2-methylpropanenitrile] | 2.14 |
| CC(C)c1nc2c(c3c1[C@@H](c1ccc(C(F)(F)F)s1)OC31CCCC1)[C@@H](O)CC(C)(C)C2 [1(24), (3′S,9′S)-4′-isopropyl-7′,7′-dimethyl-3′-(5-(trifluoromethyl)thiophen-2-yl)-6′,7′,8′,9′-tetrahydro-3′H-spiro[cyclopentane-1,1′-furo[3,4-c]quinolin]-9′-ol] | 0.286 |
| CC(C)c1nc2c(c3c1[C@@H](c1cnc(C(C)(C)C)nc1)OC31CCCC1)[C@@H](O)CC(C)(C)C2 [1(25), (3′R,9′S)-3′-(2-tert-butylpyrimidin-5-yl)-4′-isopropyl-7′,7′-dimethyl-6′,7′,8′,9′-tetrahydro-3′H-spiro[cyclopentane-1,1′-furo[3,4-c]quinolin]-9′-ol] | 0.772 |
